Results reported in patent US9969972B2, “Pluripotent stem cell culture on micro-carriers” (Janssen Biotech, Inc., priority 2008, dated 2018).

How the values were obtained:
H9 cells [1] = assay: Rho kinase inhibitor concentration for attachment and growth of H9 cells on micro-carriers; type: cell-based, human; details: H9 passage 44, MEF-CM, rocking platform
Method: A starting aliquot of 13,333 cells/cm^2 H9 cells at passage 44 was seeded onto 15 cm^2 of micro-carriers in a single well of a 12 well non-tissue culture treated plate. The cells were placed at 37° C. for at least 60 minutes before placing them onto a rocking platform at 37° C. Prior to adding the cells, HILLEX®II (Solohill, MI) and Cytodex 3® (GE Healthcare Life Sciences, NJ) micro-carriers were prepared as directed by the manufacturer. Cells were grown in MEF-CM plus a range of Rho kinase inhibitor concentrations, Y27632 at 10, 5, 2.5 or 1 μM, or (S)-(+)-4-Glycyl-2-methyl-1-[(4-methyl-5-isoquinolinyl)sulfonyl]-hexahydro-1H-1,4-diazepine dihydrochloride (Glycyl-H 1152 dihydrochloride (H), Tocris, MO) at 5, 2.5, 1 or 0.5 μM). The medium was changed daily and one well of cells was counted at 4 and 7 days after seeding for yield and viability (FIGS. 7, A and B).

H1 cells [2] = assay: Dose titration of Rho kinase inhibitor, H1 cells on micro-carriers; type: cell-based, human
Method: Next a dose titration of the Rho kinase inhibitor was attempted since it has been characterized as a […]. H1 cells at passage 48 were dissociated from MATRIGEL™ (BD Biosciences, CA) coated plates with TrypLE™ Express. The cells were then seeded onto 15 cm^2 of micro-carriers into a single well of a 12 well non-tissue culture treated plate. HILLEX®II (Solohill, MI), Cytodex 1®, or Cytodex 3® (GE Healthcare Life Sciences, NJ) micro-carriers were tested with decreasing amounts of Rho kinase inhibitor: 10 μM Y27632 (Sigma-Aldrich, MO) was used on day one followed by […] on day two (Y10/5 μM); 2.5 μM Glycyl-H 1152 dihydrochloride (Tocris, MO) was used on day one followed by 0.5 μM on day two (H2.5/0.5 μM); 1 μM Glycyl-H 1152 dihydrochloride (Tocris, MO) was used on day one followed by 0.5 μM Glycyl-H 1152 dihydrochloride (Tocris, MO) on day two (H1/0.5 μM); or continuous addition of 0.25 μM Glycyl-H 1152 dihydrochloride (Tocris, MO) was applied daily in MEF-CM (H0.25 μM). H1 cells and micro-carriers were agitated every 45 minutes for 3 hours at 37° C. before being placed on a rocking platform at 37° C. Cells were counted after 3, 5 and 7 days on the rocking platform at 37° C. (FIG. 8). Overall the best concentration of Glycyl-H 1152 dihydrochloride (Tocris, MO) was 1-2.5 μM on day one and 0.5 μM on day 2 followed by withdrawal of the compound. […] Using a minimal amount of Rho-kinase inhibitor also helps reduce costs for the process and maybe beneficial to cell proliferation.

H9 cells [3] = assay: Proliferation of H9 cells on micro-carriers in defined medium; type: cell-based, human; details: H9 p64, StemPro, 2.5 μM, on Cytodex 3 micro-carriers
Excerpt: To manufacture a therapeutic product, it is desirable to remove any animal components from the human embryonic stem cell culture medium. Currently human embryonic stem cells are maintained on MATRIGEL™ (BD Biosciences, CA) in medium conditioned using mouse embryonic fibroblasts (MEF-CM). Both MATRIGEL™ (BD Biosciences, CA) and MEF-CM are derived from mouse cells. Additionally, MEF-CM is an expensive and time-consuming medium to generate. To determine if human embryonic stem cells can be sustained on micro-carriers with defined medium, H9 cells were seeded onto Cytodex 3® (GE Healthcare Life Sciences, NJ) and HILLEX®II (Solohill, MI) micro-carriers in the presence of Rho kinase inhibitors, 10 μM Y27632 (Sigma-Aldrich, MO) or 2.5 μM Glycyl-H 1152 dihydrochloride (Tocris, MO) in Stem Pro (Invitrogen, CA), mTESR (StemCell Technologies, Vancouver, Canada) or MEF-CM. The cells were placed in a 12 well dish on a rocking platform at 37° C. The cells were counted at days 3, 5 and 7. […] Therefore the micro-carrier type, Rho kinase inhibitor, and medium all play a role in determining the ability of human embryonic stem cells to proliferate.

H1 cells [4] = assay: Proliferation of H1 cells on micro-carriers in defined medium; type: cell-based, human; details: H1 passage 38, MEF-CM
Method: H1 human embryonic stem cells at passage 38 were seeded onto either Cytodex 3® or HILLEX®II micro-carriers in the presence of Rho kinase inhibitors, 10 μM Y27632 (Sigma-Aldrich, MO) or 2.5 μM Glycyl-H 1152 dihydrochloride in mTESR (StemCell Technologies, Vancouver, Canada) or MEF-CM in a 12 well dish. The cells were placed on a rocking platform at 37° C. The cells were counted at days 3, 5 and 7.
Cells were incubated at 37° C. in a 10 cm^2 dish for 5 hours with agitation by hand every 45 minutes. mTESR (StemCell Technologies, Vancouver, Canada) plus 10 μM Y27632 (Sigma-Aldrich, MO) was changed every other day. This was conducted in parallel with cells grown in MEF-CM (Example 5).

[5] = test system: H1 human embryonic stem cells; assay: Single cell passage of H1 cells from fibroblast feeders to PRIMARIA; type: cell-based; details: feeder free/matrix free culture on PRIMARIA, greater than 8 passages
Method: Method: Cells were routinely passaged by aspirating media, washing with PBS, and then treating the cells with a dissociation enzyme (collagenase, Accutase™, or TrypLE). Collagenase was used at 1 mg/ml concentration; Accutase™ or TrypLE were used at 1× stock concentration. All enzymes were used after reaching room temperature. A solution of 2% BSA in DMEM/F12 was added to each well and cells were uniformly suspended in the solution after treating the cells with enzyme. Cells were then centrifuged for 5 minutes at 200 g, the cell pellet and additional 2% BSA in DMEM/F12 solution was added to resuspend cells and the cell suspension was distributed to three 50 ml sterile conical tubes and centrifuged for 5 min at 200 g.
Using a sequential method, the fibroblast feeders were removed by high density passaging the cluster/colony style human embryonic stem cells to a Primaria surface by treating the MEF based culture with either Accutase™, TrypLE™, or collagenase. […] Cell number for cells lifted with TrypLE™ or Accutase™ was determined by counting trypan blue stained cells with a hemocytometer. […]
2nd passage: Cells were passaged at a ratio of 1 to 4 using a 10 minutes exposure to TrypLE™ or Accutase™. A shorter enzyme exposure time, which was determined empirically by treating the cells and monitoring for detachment, was also introduced. […]

H1 and H9 cells = assay: Attachment of H1 and H9 cells to micro-carrier beads in MEF-CM with 10 μM Y27632; type: cell-based, human; details: 10 μM in MEF-CM, static culture
Method: To improve the attachment and proliferation of human embryonic stem cells on micro-carriers, a small molecule inhibitor of Rho-associated coiled coil forming protein serine/threonine kinase, Rho kinase inhibitor was added to the media. Specifically, Y27632, Y, (Sigma-Aldrich, MO) was used. MEF-CM plus 10 μM Y27632 (Sigma-Aldrich, MO) was changed daily. […] By analysis of images, human embryonic stem cells grown on HILLEX®II micro-carriers (Solohill, MI) appeared to attach and proliferate better than human embryonic stem cells on other micro-carriers tested. Additionally, H9 cells attached better to HILLEX®II (Solohill, MI) in the presence of the Rho kinase inhibitor (FIG. 1A compared to 1B).
The H1 human embryonic cell line was also tested for growth on micro-carriers for large-scale expansion. Because a Rho kinase inhibitor, Y27632 (Sigma-Aldrich, MO), was necessary for attachment of the H9 cell line, it was also assumed to be necessary for H1 cells. Cytodex 1®, Cytodex 3® (GE Healthcare Life Sciences, NJ), HILLEX®II, Plastic, ProNectinF, Plastic Plus micro-carriers (SoloHill Ann Arbor, MI) were prepared according to the manufacturer's instructions. […] After 3, 5 and 7 days, one well was imaged, harvested, and counted. […] Cells were detached according to Example 4 and counted for yield.

| Compound | concentration with the best attachment (day 4) (H9 cells [1]) [µM] | best concentration on day one (H1 cells [2]; H1 passage 48, MEF-CM, HILLEX II, Cytodex 1 or Cytodex 3) [µM] | best concentration on day 2 (H1 cells [2]; H1 passage 48, followed by withdrawal of the compound) [µM] | cell yield (H1 cells [2]; cells maintained in 0.25 μM continuously) | proliferation (H9 cells [3]) | growth (H1 cells [4]; 2.5 μM, on Cytodex 3) | pluripotency and differentiation capacity of culture [5] | attachment of H9 cells to micro-carriers (H1 and H9 cells) | effect of removal of the inhibitor on attachment (H1 cells [2]; H1 cells on micro-carriers) | expansion (H1 cells [4]; both micro-carrier types, 10 μM) |
| --- | --- | --- | --- | --- | --- | --- | --- | --- | --- | --- |
| Cc1cncc2cccc(S(=O)(=O)N3CCCN(C(=O)CN)C[C@@H]3C)c12.Cl.Cl [Glycyl-H 1152 dihydrochloride, (S)-(+)-4-Glycyl-2-methyl-1-[(4-methyl-5-isoquinolinyl)sulfonyl]-hexahydro-1H-1,4-diazepine dihydrochloride] | 5 | 1 to 2.5 | 0.5 | poor cell yield | did not proliferate well | poor growth | retains pluripotency and the ability to differentiate to definitive endoderm |  |  |  |
| C[C@@H](N)[C@H]1CC[C@H](C(=O)Nc2ccncc2)CC1 [Y27632] |  |  |  |  |  |  |  | attached and formed aggregates with all micro-carriers tested | did not cause the H1 cells to dissociate | typical expansion characteristics |
